Experimental data reported in patent US12441704B2, “Compounds active towards nuclear receptors” (NUEVOLUTION A/S, priority 2019, dated 2025).
Read-outs that look alike come from different tables or passages of the source.

Assays:
[1] = target: T1, RORγ ligand-binding domain fused to Gal4 (Homo sapiens, UniProt P51449); experiment: RORγ Reporter Assay (Gal4); assay type: cell-based
T1 construct: Gal4 (galactose-responsive transcription factor); expressed in transfected cells; host or cells: HEK293
T1 sequence (P51449 269-508 limits assumed): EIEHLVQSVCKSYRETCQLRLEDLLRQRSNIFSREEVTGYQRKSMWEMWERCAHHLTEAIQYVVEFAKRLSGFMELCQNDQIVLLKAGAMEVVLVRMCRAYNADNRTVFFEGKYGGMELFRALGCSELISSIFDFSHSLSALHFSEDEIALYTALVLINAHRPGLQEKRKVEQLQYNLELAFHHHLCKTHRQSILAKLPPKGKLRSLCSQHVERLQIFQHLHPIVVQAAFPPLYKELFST
How it was run: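 HEK293 cells transiently co-transfected with the Gal4-fused RORγ LBD and a UAS-luciferase reporter were exposed to compounds for 24 h at 37 °C (0.1% DMSO final). Luminescence was read, and percent reduction of RORγ activity was calculated relative to vehicle-average RLU.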

[2] = test system: IL-17A secretion in activated PBMCs; experiment: IL-17A secretion in activated PBMCs; assay type: cell-based, human; conditions: human PBMCs stimulated with CD3/CD28 Dynabeads for 48 h, absolute IC50
How it was run: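 Human PBMCs from healthy donors, 40,000 cells/well, were preincubated 30 min with compound in 10-point 5-fold dilutions (0.1% DMSO), then stimulated 48 h at 37° C with CD3/CD28 beads (1:1). Supernatant IL-17A was read by bead immunoassay on a flow cytometer. Inhibition was normalized to activated DMSO (top) and GNE09461 10 μM (basal).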

[3] = test system: plasma IL-17A; experiment: In vivo IL-17A induction in anti-CD3 model in mice; conditions: oral gavage twice daily day 0 to day 3, C57BL/6JRj mice
Procedure: Male C57BL/6JRj mice (7 week old) were purchased from Janvier Labs and housed at the animal facilities of Almirall throughout the study. Animals were allowed to condition for 5 days in their new environment at 22° C.±2° C., 55%±10% relative humidity and 12 h: 12 h light:dark cycles. Animals were housed in polycarbonate cages, with free access to water and non-purified stock diet (2014 Teklad Global 14% Protein Rodent Maintenance Diet, Envigo) during the full course of the studies. Care of animals was undertaken in compliance with the European Committee Directive 2010/63/EU, and the Catalan and Spanish law. All procedures were performed according to the ARRIVE guidelines (Animal Research: Reporting of In Vivo Experiments) and with approval from the Animal Experimentation Ethical Committee of Almirall (Barcelona, Spain).
Mice were injected intraperitoneally with 7.5 μg of anti-CD3e (Clone 145-2C11 from Pharmingen BD) at 0 h (day 0) and […] (day 3) time-points. The non-induced-group were injected with PBS instead of anti-CD3e. At study completion (4 h after anti-CD3e injection), animals were anaesthetized with isofluorane (Baxter) and 0.5-1 mL blood samples were drawn by intracardiac puncture in heparinized tubes. Plasma samples were stored at −80° C. for subsequent analysis.
Test compounds were freshly suspended in sterile 0.5% methylcellulose 0.1% tween-80 solution (10 mL/kg body weight). […]
Plasma levels of IL-17A were measured by ELISA (R&D Systems) according to the manufacturer's instruction. Results were calculated as the percentage of reduction of plasma IL-17A versus the difference between non-induced and anti-CD3e induced groups through the formula: inhibition=100*[1−[(x−mean non-induced)/(mean control vehicle−mean non-induced)]]. The IL-17A inhibition for each treatment can be expressed as the mean for each treatment group±S.E.M. Statistical analysis of data were conducted with one-way ANOVA followed by Dunnett's multiple comparisons test when appropriate. […]

[4] = test system: Collagen-induced arthritis; experiment: Collagen-induced arthritis (CIA) study; assay type: in vivo; conditions: 3 mpk p.o. b.i.d.; DBA/1J mice
Procedure: Collagen-induced arthritis is an animal model of rheumatoid arthritis used to evaluate the efficacy of test compounds. CIA was induced at Washington Biotechnology Inc. (Baltimore) in male DBA/1J mice (Jackson Laboratories) by subcutaneous injection at the base of the tail with 50 μl of a bovine collagen/complete Freund's adjuvant emulsion. After 21 days, the mice were further boosted by a further subcutaneous injection of 50 μl of a collagen/incomplete Freund's adjuvant emulsion. For treatment, compound or vehicle (2% DMSO, 10% HP-β-CD in MilliQ water) was given orally twice daily at various doses selected from 3, 10, 30 mg/kg, beginning at the day of CIA induction (Prophylactic setting), or after disease initiation (at day 27, therapeutic setting). Treatment lasted until day 41, and the animals were scored three times weekly. Each paw was scored and the sum of all four scores was recorded as the Arthritic Index (AI). The maximum possible AI was 16. 0=no visible effects of arthritis; 1=edema and/or erythema of one digit; 2=edema and/or erythema of 2 joints; 3=edema and/or erythema of more than 2 joints; 4=severe arthritis of the entire paw and digits including limb deformation and ankylosis of the joint. The Arthritis Index for each treatment can be expressed as the mean score for each treatment group+/−S.E.M.

[5] = target: T1, RORγ ligand-binding domain fused to Gal4; conditions: cited from earlier work
[6] = RORγ Gal4 assay EC50, Examples in <100 range, Examples of WO2016020288, based on % inhibition at 0.1 and/or 1 uM (Table 5 c, footnote 4)
[7] = RORγ Gal4 assay EC50, Examples in <500 range, Examples of WO2016020288, based on % inhibition at 0.1 and/or 1 uM (Table 5 c, footnote 5)
[8] = comparison compounds of WO2016020288, source marked WO2016020288
[9] = comparison examples of WO2016020288 (footnote 1)
[10] = HEK293 cells co-transfected with RORγ LBD-Gal4 and luciferase reporter, 24 h incubation, absolute EC50, read-out: EC50

Row | SMILES | IC50 ([2]; Homo sapiens, PBMC, 48 h) [µM] | EC50 [1, 6] [µM] | EC50 [1, 7] [µM] | EC50 [1, 10] [µM] | other results
1 | NC(=O)CN1CC[C@@H](CNc2ncnc(N(Cc3ccc(C(F)(F)F)cc3)C3CC3)c2F)[C@H](O)C1 (single isomer, unassigned) [Example A7-01-1] | 0.0063 |  |  |  | EC50 ([1]; compounds of the present disclosure, source: Table 2 herein, read-out: Gal4 assay EC50): < 0.1 µM; Inhibition of IL-17A (%) at 3 mg/kg [3]: 80%; reduction in AI (Arthritic Index) as compared to the anti-IL-17A antibody [4]: 74%
2 | CCN(Cc1ccc(C(F)(F)F)cc1)c1ncnc(NC[C@]2(O)CCN(CC(N)=O)C[C@H]2O)c1F (single isomer, unassigned) [Example D5-01-1-1] |  |  |  |  | IC50 [2]: 0.0019 µM; Inhibition of IL-17A (%) at 3 mg/kg [3]: 92%
3 | CCN(Cc1ccc(C(F)(F)F)cc1F)c1ncnc(NC[C@]2(O)CCN(CC(N)=O)C[C@H]2O)c1F (single isomer, unassigned) [Example D5-03-1-1] | 0.003 |  |  |  | Inhibition of IL-17A (%) at 3 mg/kg [3]: 93%
4 | NC(=O)Cc1ccc(CNc2ncnc(N(Cc3ccc(C(F)(F)F)cc3)C3CC3)c2F)cc1 [Example A2, reference compound] |  | < 0.1 | < 0.5 |  | EC50 [5, 8]: < 0.1 µM
5 | CC(c1ccc(C(F)(F)F)cc1)N(c1ncnc(NCc2ccc(CC(N)=O)cc2)c1F)C1CC1 (stereo not drawn) [Example A3, reference compound] |  | < 0.1 | < 0.5 |  | EC50 [5, 9]: < 0.1 µM
6 | CS(=O)(=O)N1CCC(CNc2ncnc(N(Cc3ccc(C(F)(F)F)cc3)C3CC3)c2F)CC1 [Example A7, reference compound] |  | < 0.1 | < 0.5 |  | EC50 [5, 8]: < 0.1 µM
7 | NC(=O)CN1CCC(CO)(CNc2ncnc(N(Cc3ccc(C(F)(F)F)cc3)C3CC3)c2F)CC1 [Example A7-51, 2-(4-(((6-(cyclopropyl(4-(trifluoromethyl)benzyl)amino)-5-fluoropyrimidin-4-yl)amino)methyl)-4-(hydroxymethyl)piperidin-1-yl)acetamide] | 0.0073 |  |  | 0.0024 | 
8 | NC(=O)CN1CCC(CO)(CNc2ncnc(N(Cc3ccc(C(F)(F)F)cn3)C3CC3)c2F)CC1 [Example A7-52, 2-(4-(((6-(cyclopropyl((5-(trifluoromethyl)pyridin-2-yl)methyl)amino)-5-fluoropyrimidin-4-yl)amino)methyl)-4-(hydroxymethyl)piperidin-1-yl)acetamide] | 0.13 |  |  | 0.042 | EC50 ([1]; compounds of the present disclosure, value from Table 2 herein, read-out: Gal4 assay EC50): < 0.1 µM
9 | NC(=O)C(CO)N1CCC(O)(CNc2ncnc(N(Cc3ccc(C(F)(F)F)cc3)C3CC3)c2F)CC1 (stereo not drawn) [Example A7-68, 2-(4-(((6-(cyclopropyl(4-(trifluoromethyl)benzyl)amino)-5-fluoropyrimidin-4-yl)amino)methyl)-4-hydroxypiperidin-1-yl)-3-hydroxypropanamide] | 0.021 |  |  | 0.02 | 
10 | NC(=O)C(CO)N1CCC(CO)(CNc2ncnc(N(Cc3ccc(C(F)(F)F)cc3)C3CC3)c2F)CC1 (stereo not drawn) [Example A7-70, 2-(4-(((6-(cyclopropyl(4-(trifluoromethyl)benzyl)amino)-5-fluoropyrimidin-4-yl)amino)methyl)-4-(hydroxymethyl)piperidin-1-yl)-3-hydroxypropanamide] | 0.012 |  |  | 0.0088 | 
11 | NC(=O)CN1CCC(CNc2ncnc(N(Cc3ccc(C(F)(F)F)cc3)C3CC3)c2F)(c2ncon2)CC1 [Example A7-81, 2-(4-(((6-(Cyclopropyl(4-(trifluoromethyl)benzyl)amino)-5-fluoropyrimidin-4-yl)amino)methyl)-4-(1,2,4-oxadiazol-3-yl)piperidin-1-yl)acetamide] | 0.12 |  |  | 0.0053 | 
12 | NC(=O)CN1CCC(CNc2ncnc(N(Cc3ccc(C(F)(F)F)cc3)C3CC3)c2F)(c2nnco2)CC1 [Example A7-82, 2-(4-(((6-(Cyclopropyl(4-(trifluoromethyl)benzyl)amino)-5-fluoropyrimidin-4-yl)amino)methyl)-4-(1,3,4-oxadiazol-2-yl)piperidin-1-yl)acetamide] | 0.15 |  |  | 0.0081 | 
13 | NC(=O)CN1CCC(CNc2ncnc(N(Cc3ccc(C(F)(F)F)cc3)C3CC3)c2F)(c2cnn[nH]2)CC1 [Example A7-85, 2-(4-(((6-(Cyclopropyl(4-(trifluoromethyl)benzyl)amino)-5-fluoropyrimidin-4-yl)amino)methyl)-4-(1H-1,2,3-triazol-5-yl)piperidin-1-yl)acetamide] | 0.12 |  |  | 0.0079 | 
14 | CC(=O)N1CCC(CNc2ncnc(N(Cc3ccc(C(F)(F)F)cc3)C3CC3)c2F)CC1 [Example A11, reference compound] |  |  | < 0.5 |  | EC50 [5, 8]: < 0.1 µM
15 | OC1(CNc2ncnc(N(Cc3ccc(C(F)(F)F)cc3)C3CC3)c2F)CCC(F)(F)CC1 [Example A44, reference compound] |  | < 0.1 | < 0.5 |  | EC50 [5, 8]: < 0.1 µM
16 | NC(=O)Cc1ccc(CNc2ncnc(N(Cc3ccc(C(F)(F)F)nc3)C3CC3)c2F)cc1 [Example A83, reference compound] |  | < 0.1 | < 0.5 |  | EC50 [5, 9]: < 0.1 µM
17 | NC(=O)Cc1ccc(CNc2ncnc(N(Cc3ccc(C(F)(F)F)cn3)C3CC3)c2F)cc1 [Example A85, reference compound] |  | < 0.1 | < 0.5 |  | EC50 [5, 9]: < 0.1 µM
18 | NC(=O)CC1CC(CNc2ncnc(N(Cc3ccc(C(F)(F)F)cc3)C3CC3)c2F)C1 (stereo not drawn) [Example A95, reference compound] |  |  | < 0.5 |  | EC50 [5, 8]: < 0.5 µM
19 | NC(=O)Cc1ccc(CNc2ncnc(N(Cc3cnc(C(F)(F)F)nc3)C3CC3)c2F)cc1 [Example A98, reference compound] |  | < 0.1 | < 0.5 |  | EC50 [5, 9]: < 0.1 µM
20 | NC(=O)Cc1ccc(CNc2ncnc(N(Cc3cccc(OC(F)(F)F)c3)C3CC3)c2F)cc1 [Example A102, reference compound] |  | < 0.1 | < 0.5 |  | EC50 [5, 9]: < 0.1 µM
21 | CN(Cc1cccc(OC(F)(F)F)c1)c1ncnc(NCc2ccc(CC(N)=O)cc2)c1F [Example A128, reference compound] |  | < 0.1 | < 0.5 |  | EC50 [5, 9]: < 0.1 µM
